Reference: patent publication US5833994A, “Use of the AH receptor and AH receptor ligands to treat or prevent cytopathicity of viral infection” (Paracelsian, Inc., priority 1997, dated 1998)
“Also recorded” adds a separate entry of the source.

How the values were obtained:
[1] = test system: HIV envelope gp120/41-induced syncytia formation in CD4+T cell lines (HIVenv 2-8 co-culture); test: Inhibition of HIVenv 2-8-induced syncytia formation / cell death (HIV-1 co-culture assay); type: cell-based; conditions: for Estimated IC50 (Syncitia Quantification), inhibition of HIV-induced cytopathicity: Table 1
Method: Sourcing of Ah Receptor Ligands: The Ah receptor ligands 2,3,7,8-Tetrachlorodibenzo-p-dioxin, 3,3',4,4',5-Pentachlorobiphenyl, 3,3',4,'4-Tetrachlorobiphenyl, and 2-Monochlorodibenzo-p-dioxin compounds were purchased from Accustandard (Cambridge, Mass.). α-naphthoflavone was purchased from Sigma (St. Louis, Mo.). Stock solutions of each compound were prepared by dissolution in DMSO at a 1000X concentration, i.e. the highest concentration tested was diluted by 1000-fold.
Bioassay Procedure: The cell lines utilized in the assay protocol include the following: HIVenv 2-2 (non-cytopathic), HIVenv 2-8 (cytopathic), Jurkat CD4+T cell line (clone E6-1), and SupT1. Cell lines were cultured in RPMI medium (Gibco, Grand Island, N.Y.) supplemented with L-glutamine (Sigma, St. Louis, Mo.) and 10% FBS-HI (Intergen). The Jurkat CD4+T cell line was obtained from American Type Culture Collection (Bethesda, Md.). All other cell lines were obtained from the National Institutes of Health. The HIVenv 2-2 or HIVenv 2-8 cells were plated with both CD4+T cell lines (1×10^3 cells per cell line in 16 μL of media.) in a 96-well tissue culture plate containing 50 μL of media with compound to be tested yielding a final volume of approximately 100 μL. The plates were then gently shaken to ensure adequate mixing of the assay components. Cells were then co-cultured at 5% CO2, 37C., and 95% humidity for 24 to 48 hours. The time points were chosen for the convenience, cytopathic changes become evident in the cell cultures used within a 2 to 4 hour period, becoming more and more prominent with time.
Data Reduction for this ELISA: HIVenv 2-2 co-culture ELISA values are used as the background for HIVenv 2-8 co-culture values. Dose responses are then plotted with dose along the x-axis and the background corrected optical density values on the y-axis.
Positive and Negative Controls: The use of the HIVenv 2-2 cell line serves as a negative control for induction of cytopathicity.
Interpretation of the Test: A positive response was defined as a dose-related decrease in syncytia formation in excess of 50% compared to HIVenv 2-8 co-cultures alone. Calculation of median effective doses was estimated by visual observation and by quantification of syncitia in 10X power microscope fields.
The Materials and Methods used in the testing of the various dibenzofuran compounds were the same as those used in Example 1 above. This includes the use of the same controls, cell lines, and assay procedures.
Interpretation of the Test: A positive response was defined as a dose-related decrease in syncytia formation in excess of 50% compared to HIVenv 2-8 co-cultures alone. Calculation of median effective doses was estimated by visual observation and by quantification of syncitia in 10X power microscope fields. Another procedure which provides data similar to the Bioassay procedure just described allows for quantification of changes in the co-culture cells through an ELISA method, not as reliant on visual observation. […]

Ah receptor [2] = target: T1, Ah receptor (Cavia porcellus, UniProt Q6J287); test: Ah receptor transformation, agonist test (Ah-immunoassay, absence of TCDD); type: biochemical, Guinea pig
T1 sequence (Q6J287 1-846): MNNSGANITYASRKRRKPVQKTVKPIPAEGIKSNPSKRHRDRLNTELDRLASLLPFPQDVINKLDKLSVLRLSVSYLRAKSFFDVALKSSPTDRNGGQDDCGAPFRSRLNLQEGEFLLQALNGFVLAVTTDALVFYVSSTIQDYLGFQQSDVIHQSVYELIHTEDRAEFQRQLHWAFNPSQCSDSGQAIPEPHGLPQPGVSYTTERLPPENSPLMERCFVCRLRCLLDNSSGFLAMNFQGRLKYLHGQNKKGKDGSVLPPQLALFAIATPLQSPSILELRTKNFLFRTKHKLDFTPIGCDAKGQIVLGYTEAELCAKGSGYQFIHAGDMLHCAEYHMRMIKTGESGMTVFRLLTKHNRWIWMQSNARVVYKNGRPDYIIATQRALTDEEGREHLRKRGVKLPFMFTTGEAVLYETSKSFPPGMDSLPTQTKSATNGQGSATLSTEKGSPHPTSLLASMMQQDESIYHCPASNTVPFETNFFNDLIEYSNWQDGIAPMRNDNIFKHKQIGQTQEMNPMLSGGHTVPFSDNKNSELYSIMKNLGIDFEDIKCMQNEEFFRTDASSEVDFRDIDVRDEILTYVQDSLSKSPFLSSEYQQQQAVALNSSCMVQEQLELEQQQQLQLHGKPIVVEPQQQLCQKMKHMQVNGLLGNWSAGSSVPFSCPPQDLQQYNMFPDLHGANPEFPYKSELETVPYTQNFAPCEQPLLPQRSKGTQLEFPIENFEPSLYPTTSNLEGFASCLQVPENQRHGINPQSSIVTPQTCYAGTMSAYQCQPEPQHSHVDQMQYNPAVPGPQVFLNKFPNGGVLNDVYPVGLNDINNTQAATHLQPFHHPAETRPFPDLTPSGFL
Method: Cytosol was prepared as described above.
Diluent for TCDD dose response, diluent for extracts (detection of agonists), and negative control: The cytosol is treated with 1 μL DMSO per 1 mL cytosol (-).
1 nM TCDD treated, positive control. […] DMSO diluent for detection of agonists: the cytosol is treated with μL DMSO per 1 mL cytosol. (1 nm final concentration of TCDD).

Ah receptor [3] = conditions: literature; cited from earlier work
Ah receptor [4] = target: T1, Ah receptor; test: Inhibition of Ah receptor transformation, antagonist test (Ah-immunoassay, 0.5 nM TCDD)
Method: Cytosol was prepared as described in methods and treated with TCDD, DMSO or TCM extract to make 1) 0.5 nM TCDD, 2) 0.1% DMSO, or 3) 500 μg/mL TCM extract, respectively. The treated cytosol was serially diluted in a neutravidin-coated ELISA plate (Pierce, Rockford, Ill.). […] To treat for Ah receptor agonist activity, extracts were diluted in 0.5 nM TCDD treated cytosol to 250, 125, and 62.5 μg/mL of TCM extracts.
Ten mL aliquots of cytosol were thawed and pooled, generally 20 mL per ELISA plate. For each 20 mL of cytosol, 10 μL of thawed DRE stock and 1 mL HEDG in 4M NaCl were added.
0.5 nM TCDD Diluent for extracts (detection of antagonists): The cytosol is treated with 1 μl of 1 μM TCDD per 2 mL cytosol (0.5 nm).
500 μg/mL extracts (detection of antagonists): 1 μL of test extract (500 mg/mL in DMSO) in 1 mL 0.5 nM TCDD-treated cytosol (500 μg/mL final concentration of extract in cytosol).
Serial dilution's of the extracts and/or TCDD treated cytosol into DMSO-treated cytosol are done as required by the experiment and are described in the examples.
The ELISA plate containing the treated cytosol is incubated with gentle rocking for 2 hours at 30° C. to allow the transformation of Ah receptor, binding of Ah receptor with ARNT, and binding of the Ah receptor/ARNT complex to the biotinylated DRE, and binding of the biotinylated DRE to the neutravidin bound to the ELISA plate.
After 2 hours the plate is washed 3 times with 400 μL TBS plus 0.02% Tween 20 per well per wash and 200 μL of the working dilution of anti-ARNT added to all wells. The plate is again incubated with gentle rocking at 30° C. for 1 hour. After 1 hour the plate is washed as before and a working dilution (1:4000) of anti-rabbit/alkaline phosphatase conjugate is added to all wells. The plate is incubated for a further 1 hour at 30° C. with gentle rocking and then washed as before. PNPP stock is added to each well (200 μL) and the plate is incubated for 1 hour at 30° C., at which time it is read at 405 nm in an ELISA plate reader and the milli O.D.'s of the wells are recorded.
TCM extracts were tested for their ability to inhibit the transformation of the Ah receptor.

Cyclin B [5] = test: Inhibition of cyclin B overexpression (cyclin B ELISA; FIGS. 2 and 3); type: cell-based; conditions: FIG. 2 / FIG. 3
Method: Cyclin B ELISA procedure: The overexpression Cyclin B has become associated with HIVenv 2-8 cytopathicity. This biochemical response and it's inhibition by Ah receptor ligands has been assayed by ELISA. Following 24 hours of co-culture in 96 well microtiter tissue culture plates, the cells are washed 1X with PBS buffer and then lysed with 50 μL lysis buffer (50 mM Tris, […], 10% glycerol, 1% NP-40) with shaking at 4° C. for 30 minutes. Thirty microliters of the cell lysate were then transferred into Immulon 4™ ELISA strip plates and 70 μL of coating buffer (0.2M Borate pH 10.5) added to bring the final microtiter well volume to 100 μL The plates were then incubated at 37° C. for 1 hour to allow for coating. The plates are then washed 3X with 300 μl TBST (20 mM Tris, 150 mM NaCl, 0.05% Tween 20, pH 7.5), incubated with 125 μL of blocking solution for 5 minutes, washed 3X, incubated with horseradish peroxidase labeled anti-mouse IgG for 1 hour at room temperature, washed 3X, and then incubated with 100 μL TMB substrate for 30 minutes at room temperature. Stop solution (2.5M sulfuric acid, 100 μL) was then added to prevent further color development and the plate was read at an optical density of 450 nm.
Data Reduction for this ELISA: HIVenv 2-2 co-culture ELISA values are used as the background for HIVenv 2-8 co-culture values. […]

Cyclin B [6] = test: Inhibition of cyclin B overexpression, western blot densitometry; type: cell-based; conditions: TCDD, 10 nM; mean ± standard error, n=5 or 6; 2-8 co-culture 61.88, 2-2 co-culture 10.14
Method: (§1) The expression of the protein kinase c-Mos was induced in addition to alterations in cell cycle (CDK1, cyclin B) and apoptotic (Bcl-2 and Bax) protein concentrations and phosphorylation status. CDK1 became hyperphosphorylated whereas cyclin B, Bcl-2, and Bax expression were elevated. Assay for these biochemical changes was performed by western blot analysis using equal amounts of cell lysate proteins derived from cells cultured with the respective Ah receptor ligands. Responses were quantified by scanning densitometry.
(§2) Data from Table 2 represents the mean ± standard error of scanning densitometric units (n=5 or 6 individual scans from separate experiments).Doses used were as follows: TCDD, 10 nM; Substituted Furans (6-nitro 1,3,8-trichlorodibenzofuran; 6-isopropyl, 1,3,8-trichlorodibenzofuran; 6-methyl, 1,3,8-trichlorodibenzofuran; 1-bromo, 6-methyl, 3,8-dichlorodibenzofuran), 2 μM. All four alkyl substituted furan compounds that were tested yielded approximately equivalent responses so their responses were combined.

CDK1 = test: Inhibition of CDK1 hyperphosphorylation, western blot densitometry; type: cell-based; conditions: TCDD, 10 nM; mean ± standard error, n=5 or 6; 2-8 co-culture 44.27, 2-2 co-culture 10.41
Method: as §1, §2

[7] = high dosages over a prolonged period; cited from earlier work
[8] = test system: transformed, cancerous cells; conditions: cited from earlier work

**Q.** With `O=c1cc(-c2ccccc2)oc2c1ccc1ccccc12` [α-naphthoflavone] as the molecule, how does the “inhibition of syncytia formation / cytopathicity” value [1] read?
**A.** correspondingly weaker activity; also recorded: also effective at inhibiting syncytia formation

**Q.** And the “Estimated IC50 (Syncitia Quantification), inhibition of HIV-induced cytopathicity” value [1]?
**A.** 350 nM

**Q.** And the “ability to transform the Ah receptor / agonist activity” value (Ah receptor [2]; absence of TCDD)?
**A.** very weak agonist of the Ah receptor; also recorded: did not reach the EC50 of TCDD

**Q.** And the “known Ah receptor agonism/antagonism” value (Ah receptor [3])?
**A.** known partial agonist and antagonist of the Ah receptor; also recorded: described to act as an Ah receptor antagonist by inhibiting TCDD-induced Ah receptor transformation to a DNA binding form

**Q.** What about the “IC50, inhibition of Ah receptor transformation (estimated)” value (Ah receptor [4]; 0.5 nM TCDD) of the same molecule?
**A.** 18600 nM

**Q.** What about the “inhibition of Ah receptor transformation / antagonist activity (words)” value (Ah receptor [4]; 0.5 nM TCDD) of the same molecule?
**A.** more potent antagonist of the Ah receptor

**Q.** For `COC1C=CC=C(C)C(=O)NC2=CC(=O)C=C(C2=O)C(OC)C(C)CC(OC)C(OC)C(C)C=C(C)C1OC(N)=O` (centres unmarked) [Herbimycin A, herbimycin A], which “inhibition of syncytia formation / cytopathicity” value [1] is on record?
**A.** block the HIVenv 2-8 induced cytopathic effect

**Q.** What about the “Estimated IC50 (Syncitia Quantification), inhibition of HIV-induced cytopathicity” value [1] of the same molecule?
**A.** 750 nM

**Q.** What about the “Estimated IC50 (Syncitia Quantification), inhibition of HIV-induced cytopathicity, second value in brackets” value ([1]; Table 1, positive control) of the same molecule?
**A.** 430 nM

**Q.** What about the “inhibition of cyclin B overexpression (figure legend)” value (Cyclin B [5]) of the same molecule?
**A.** inhibition of cyclin B overexpression

**Q.** With `Clc1cc2c(cc1Cl)Oc1cc(Cl)c(Cl)cc1O2` [2,3,7,8-TCDD, 2,3,7,8-Tetrachlorodibenzo-p-dioxin] as the molecule, how does the “inhibition of syncytia formation / cytopathicity” value [1] read?
**A.** most effective compound and strongest Ah receptor agonist

**Q.** What about the “Estimated IC50 (Syncitia Quantification), inhibition of HIV-induced cytopathicity” value [1] of the same molecule?
**A.** 2 nM

**Q.** And the “Cyclin B (inhibition of cyclin B overexpression)” value (Cyclin B [6])?
**A.** 9.32 ± 2.7 scanning densitometric units

**Q.** What about the “CDK1 Phosphorylation” value (CDK1) of the same molecule?
**A.** 11.13 ± 3.3 scanning densitometric units

**Q.** And the “inhibition of cyclin B overexpression (figure legend)” value (Cyclin B [5])?
**A.** inhibition of cyclin B overexpression

**Q.** What about the EC50 (Ah receptor [2]) of the same molecule?
**A.** 0.5 nM

**Q.** And the “Milli O.D. of TCDD control” value (Ah receptor [2]; Table 12 footnote, .5 nM TCDD, BG subtracted, read at 450 nm)?
**A.** 850 Milli O.D.

**Q.** For `O=c1c(O)c(-c2ccc(O)c(O)c2)oc2cc(O)cc(O)c12` [Quercetin], which “genotoxicity / carcinogenic activity” value [7] is on record?
**A.** genotoxic compound, that may initiate carcinogenic activity in certain tissues

**Q.** What about the “anti-proliferative effect” value [8] of the same molecule?
**A.** anti-proliferative effect on those transformed, cancerous cells

**Q.** What about the IC50 (Ah receptor [4]) of the same molecule?
**A.** ~9930 nM

**Q.** And the “inhibition of Ah receptor transformation / antagonist activity (words)” value (Ah receptor [4]; 0.5 nM TCDD)?
**A.** does present antagonistic activity towards the Ah receptor

**Q.** What about the “inhibition of Ah receptor transformation / antagonist activity (words)” value (Ah receptor [4]; 0.5 nM TCDD, listed as quercetin) of the same molecule?
**A.** antagonistic activity towards the Ah receptor at all doses tried

**Q.** And the “Quercetin interaction with the Ah receptor, Milli O.D. Reading” value (from here on “Quercetin interaction”) (Ah receptor [4]; Table 12, 2.5 μg/mL)?
**A.** 480 Milli O.D.

**Q.** And the “Quercetin interaction” value (Ah receptor [4]; Table 12, 5 μg/mL)?
**A.** 320 Milli O.D.

**Q.** What about the “Quercetin interaction” value (Ah receptor [4]; Table 12, 10 μg/mL) of the same molecule?
**A.** 260 Milli O.D.

**Q.** What about the “Quercetin interaction” value (Ah receptor [4]; Table 12, 20 μg/mL) of the same molecule?
**A.** 210 Milli O.D.
